# Read-outs that look alike come from different tables or passages of the source.
# What was measured:
# MC3R = MC3R (Homo sapiens, UniProt P41968); experiment: Competitive binding with 125I-NDP-MSH, HEK293 membrane preparations, MC3R
# Method: (§1) Binding analysis was done by Cerep laboratories (Paris, France) with coded samples.
# (§2) The mixtures were filtered through 96-well GFC filters (Millipore, Billerica, Mass.), washed 3 times with binding buffer without BSA, dried and counted.
# (§3) A competitive binding assay using a MCR panel including MCR 1, 3, 4, and 5 was performed.
# C57BL/6 mice [1] = experiment: MOG35-55 induced EAE model; assay type: in vivo
# MC1R = MC1R (Homo sapiens, UniProt Q01726); experiment: Competitive binding with 125I-NDP-MSH, HEK293 membrane preparations, MC1R;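 further: Read-out: receptor-bound radioligand retained by filtration and counted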
# Sequence of MC1R (Q01726 whole entry): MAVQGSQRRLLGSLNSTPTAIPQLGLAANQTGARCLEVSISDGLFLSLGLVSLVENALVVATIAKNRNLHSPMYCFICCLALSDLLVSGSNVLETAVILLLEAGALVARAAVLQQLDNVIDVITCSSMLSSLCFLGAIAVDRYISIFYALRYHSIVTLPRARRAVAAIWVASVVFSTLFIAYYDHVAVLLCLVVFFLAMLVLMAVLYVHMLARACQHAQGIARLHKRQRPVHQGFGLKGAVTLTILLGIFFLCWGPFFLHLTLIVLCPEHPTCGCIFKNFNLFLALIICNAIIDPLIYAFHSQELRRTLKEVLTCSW
# Method: as §1, §2, §3
# [2] = Peptide stability in plasma or PBS in vitro at 37° C.; assay type: in vitro ADME; settings: 24 hours
# Method: The stability of RI-α-MSH was determined by incubation in plasma or PBS in vitro at 37° C. for 24 hours. Aliquots were taken and proteins precipitated with 2 volumes of acetonitrile. α-MSH was used as a control and bradykinin as an internal standard. After centrifugation, samples were frozen at −80° C. until LC/MS/MS (MRM) analysis using a C18 column separation and positive electrospray ionization mode.
# MC5R = MC5R (Homo sapiens, UniProt P33032); experiment: Competitive binding with 125I-NDP-MSH, HEK293 membrane preparations, MC5R
# Sequence of MC5R (P33032 whole entry): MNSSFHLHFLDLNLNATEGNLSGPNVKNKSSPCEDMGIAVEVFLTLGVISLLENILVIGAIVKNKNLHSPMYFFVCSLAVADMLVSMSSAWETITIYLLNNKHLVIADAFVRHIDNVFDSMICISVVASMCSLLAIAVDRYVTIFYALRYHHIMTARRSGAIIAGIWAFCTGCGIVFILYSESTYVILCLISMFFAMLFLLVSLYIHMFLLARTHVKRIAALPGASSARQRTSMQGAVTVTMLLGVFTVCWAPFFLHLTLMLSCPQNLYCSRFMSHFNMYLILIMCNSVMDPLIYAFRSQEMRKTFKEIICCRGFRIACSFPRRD
# Method: as §1, §2, §3
# [3] = Serum levels after a single dose in mice; assay type: in vivo
# B10.RIII mice = tested on: B10.RIII mice
# Method: Female B10.RIII were injected subcutaneously at two sites (between shoulder blades and in pelvic region) with a total of 200 μg interphotoreceptor binding protein peptide (IRBP) 161-180 (New England Peptide; Fitchburg, Mass.), respectively in 2 mg/ml complete Freund's adjuvant (CFA; Sigma, St. Louis, Mo.) with mycobacterium tuberculosis H37Ra (Difco, Detroit, Mich.).
# The eyes of mice are dilated using one or two drops of Mydriacyl 1% (Alcon; Humacao, Puerto Rico) and rested in a darkened room for approximately 5 min. Mice are manually restrained and the retinas of both eyes are visualized using an indirect ophthalmoscope with a 78 diopter lens. The eyes are scored for inflammation using a progressive scoring system between 0-5. Score 0: Normal retina. Score 1: Vascular inflammation proximal to the optic nerve. Score 2: <5 inflammatory lesions confined to one quadrant of the eye. Score 3: >5 inflammatory lesions in more than one quadrant of the eye. Score 4: Inflammatory lesions are contiguous. Score 5: Retinal detachment. Whole eyes from mice were harvested and placed in PBS. The eyes were embedded in OCT media for frozen fixation. 5-μm sections were cut through the papillary-optic nerve plane and stained with hematoxylin and eosin.
# Uveitis was induced in B10.RIII mice with an injection of IRBP 161-180 and CFA.
# Current forms of therapy for uveitis include corticosteroids and immunosuppressive agents. […] Uveitis was induced in B10.RIII mice with IRBP161-180 and CFA injections. […] Mice were treated daily for 21 days.
# EAU was induced in female B10.RIII mice with IRBP 161-180.
# Uveitis was induced in B10.RIII mice with IRBP161-180 and CFA injections. […] Individual weights of the mice were recorded at 4 timepoints throughout the course of disease.
# B10.RIII mice were injected with IRBP161-180 and CFA to induce uveitis. […] Treatment was initiated at peak time of disease when mice reached eye scores of 4 which included inflammatory lesions throughout the posterior segment of the eye and possible hemorrhaging.
# C57BL/6 mice [4] = experiment: MOG35-55 primed mice treated in the priming phase: recall response, cytokines, macrophage markers; assay type: in vivo
# Method: C57BL/6 mouse splenocytes and lymph node cells were cultured in 96 well plates 5×10^5 cells/well. MOG35-55 or OVA 257-264 peptide was added to wells at a concentration of 25 μg/ml. Supernatant was collected at 48 hrs after MOG peptide stimulation. After 3 days in culture cells were pulsed with [3H] thymidine at 1 μCi/well for 8 hrs. Thymidine incorporation was measured by cpm.
# Total RNA was extracted from tissues with TRIZOL® (Invitrogen, Carlsbad, Calif.). 1 μg of total RNA was reverse transcribed and used in quantitative PCR by using SYBR® green incorporation with reagents from Applied Biosystems (Foster City, Calif.) on an ABI 7900. A cDNA standard was run in each PCR for cytokine targets and message concentrations were normalized to mouse β-actin. […] The sequences for mouse IL-10 primers were forward: […] (SEQ ID NO:29) and reverse: […] (SEQ ID NO:30) (2). The sequences for mouse β-actin primers were: forward […] (SEQ ID NO:31) and reverse […] (SEQ ID NO:32) (3).
# Flow cytometric analysis of inflammatory cytokine profiles of mouse serum or cell supernatant were measured using the Cytometric Bead Array Kit (CBA) made by BD Biosciences (San Jose, Calif.). Samples were processed according to the manufacturer's protocol.
# On Day 9, spleen and draining lymph nodes were harvested and analyzed for recall responses to MOG35-55 peptide in vitro by [3H] thymidine incorporation.
# Cytokine levels were evaluated through a cytometric bead array by flow cytometry.
# Spleens from individual mice were harvested on Day 9 and mRNA cytokine expression was quantitated using real time PCR. […] Naïve mice that were not immunized with MOG peptide were used to quantitate baseline mRNA levels of TNF-α and IL-10.
# Blood serum samples were also collected on day 9 of the study and evaluated for cytokine levels: TNF-α, MCP-1, IL-12, IL-10, and IL-6 (FIGS. 13C and 13D).
# [5] = Example 10, 100 μg/mouse i.p. daily from day 10
# [6] = 100 μg i.p. days 2-8, harvested day 9
# Sequence of MC3R (P41968 whole entry): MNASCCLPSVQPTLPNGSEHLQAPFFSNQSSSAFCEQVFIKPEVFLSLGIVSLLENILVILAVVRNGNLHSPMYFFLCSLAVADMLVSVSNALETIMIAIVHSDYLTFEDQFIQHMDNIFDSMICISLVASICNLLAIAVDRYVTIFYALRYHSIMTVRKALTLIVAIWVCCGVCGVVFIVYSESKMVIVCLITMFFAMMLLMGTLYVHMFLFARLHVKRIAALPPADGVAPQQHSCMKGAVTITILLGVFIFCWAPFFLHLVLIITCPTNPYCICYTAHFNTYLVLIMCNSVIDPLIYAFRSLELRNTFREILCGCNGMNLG
structure (smiles),measurement,setting,value
"CSCC[C@@H](NC(=O)[C@@H](CCC(=O)O)NC(=O)[C@@H](Cc1c[nH]cn1)NC(=O)[C@@H](Cc1ccccc1)NC(=O)[C@@H](CCCNC(=N)N)NC(=O)[C@@H](Cc1c[nH]c2ccccc12)NC(=O)CNC(=O)[C@@H](CCCCN)NC(=O)[C@H]1CCCN1C(=O)[C@H](NC(C)=O)C(C)C)C(=O)N[C@H](CO)C(=O)N[C@H](Cc1ccc(O)cc1)C(=O)N[C@H](CO)C(N)=O [RI-MSH, vpkGwrfhemsys]",Ki,MC3R,> 30 µM
same,binding to MCR-3 (in words),"MC3R; MCR panel 1, 3, 4, 5",bind only to MCR-1
same,spinal cord histopathology (in words),"C57BL/6 mice [1]; 100 μg/mouse i.p. daily from day 10, day 24",lack focal area of inflammation
same,TNF-α mRNA in spleen vs PBS (in words),C57BL/6 mice [1]; Day 1 and Day 4 of treatment,no significant change
same,IL-10 mRNA in spleen vs PBS (in words),C57BL/6 mice [1]; Day 7 of treatment,reduced
same,maximum percent incidence of disease,C57BL/6 mice [1]; [5],20%
same,mean clinical disease score vs PBS (in words),C57BL/6 mice [1]; [5],significant reduction in the mean clinical disease score
same,mean clinical scores (in words),"C57BL/6 mice [1]; Example 11, 30 μg/mouse i.p. daily from day 10",did not have a significant effect
same,maximum percent incidence of disease,"C57BL/6 mice [1]; Example 11, dexamethasone 2 mg/kg",35%
same,mean clinical disease score vs PBS (in words),"C57BL/6 mice [1]; Example 11, peptides 100 μg/mouse, dexamethasone 2 mg/kg, i.p. daily from day 10",reduction in the mean clinical disease score
same,TNF-α mRNA in spleen vs PBS (in words),C57BL/6 mice [1]; after 7 days of daily treatment,significantly decreased
same,IL-10 mRNA in spleen vs PBS (in words),C57BL/6 mice [1]; earlier timepoints (Day 1 and 4),no difference
same,affinity for MC1R lower than that of the native MSH peptide,MC1R,11 fold
same,Ki,"MC1R; Ki MC1R, competition with 125I-NDP-MSH",0.0046 ± 0.0013 µM
same,binding to MCR-1 (in words),"MC1R; MCR panel 1, 3, 4, 5",bind only to MCR-1
same,stability in PBS (in words),[2],stable both in PBS and plasma
same,stability in plasma (in words),[2]; in vitro,no detectable degradation over 24 hours
same,Ki,"MC5R; Ki MC5R, competition with 125I-NDP-MSH, cells noted in μM",~25 µM
same,binding to MCR-5 (in words),"MC5R; MCR panel 1, 3, 4, 5",bind only to MCR-1
same,serum half-life compared (in words),"[3]; mouse, in vivo, iv",longer serum half-life than native α-MSH
same,serum levels after a single dose (in words),"[3]; single dose of 100 μg, mice, n=5",measurable serum levels of RI-α-MSH after 24 hrs
same,uveitis course (in words),B10.RIII mice; 3 μg/mouse i.p. daily from eye scores of 4,did not reduce or inhibit disease
same,uveitis course (in words),B10.RIII mice; 10 μg/mouse i.p. daily from eye scores of 4,rapidly ameliorated uveitis
same,mean clinical eye scores vs scrambled peptide (in words),"B10.RIII mice; 100 μg/mouse i.p. daily for 13 days from eye scores 2-3, days 15, 21 and 23",significant reduction
same,uveitis course (in words),B10.RIII mice; 100 μg/mouse i.p. daily from eye scores of 4,rapidly ameliorated uveitis
same,mice with individual maximum eye scores ≤1,"B10.RIII mice; 100 μg/mouse i.p. daily, day 23 after disease induction",75%
same,"efficacy in uveitis, treatment at onset of disease (in words)","B10.RIII mice; 100 μg/mouse i.p., from eye score 1, data not shown",had efficacy in uveitis
same,mean clinical eye scores vs PBS (in words),B10.RIII mice; 100 μg/mouse i.v. daily from eye scores of 2,significant reduction of mean clinical eye scores
same,eye score in retina images (median of group),"B10.RIII mice; 100 μg/mouse i.v. daily from late stage, day 13 after start of treatment",1
same,histological examination of the eyes (in words),"B10.RIII mice; 100 μg/mouse i.v. daily, 10 days after start of treatment",reduced pathology in the eye
same,mice with eye scores of 3 or greater,"B10.RIII mice; 100 μg/mouse i.v. daily, day 13 after start of treatment",2 of the 11
same,mice with a maximum eye score of 3 or greater,"B10.RIII mice; 100 μg/mouse i.v. daily, day 16, four days after start of treatment",0 of the 8
same,proliferative recall response of spleen cells to MOG35-55 (in words),C57BL/6 mice [4]; [6],slight reduction in recall responses
same,recall response of lymph node cells to MOG peptide (in words),C57BL/6 mice [4]; [6],did not show a significant difference
same,"expression of CD86, CD40, CD14 on splenic CD11b+ or F4/80+ macrophages (in words)","C57BL/6 mice [4]; 7 days of daily dosing, 100 μg/mouse",no difference in the expression levels
same,"TNF-α, IFNγ, IL-6 and MCP-1 levels in spleen cell supernatant vs PBS (in words)",C57BL/6 mice [4]; cells stimulated with MOG35-55 in vitro,decrease
same,serum IL-6 vs PBS (in words),C57BL/6 mice [4]; day 9,decrease
same,serum IL-10 (in words),C57BL/6 mice [4]; day 9,no difference
same,serum MCP-1 vs PBS (in words),C57BL/6 mice [4]; day 9,significantly decreased
same,serum TNF-α and IL-12 vs PBS (in words),C57BL/6 mice [4]; day 9,decrease
same,IL-10 and TNF-α mRNA in spleen vs PBS (in words),"C57BL/6 mice [4]; priming phase, treated days 2-8, day 9",decreased levels
